The term Km denotes the substrate concentration at which the rate is half of its maximum.

We go through two molecules from US5621002A, “Prodrugs for enzyme mediated activation” (Behringwerke Aktiengesellschaft, priority 1993, dated 1997).

Some results are limits rather than exact numbers.

Series [1] deals with T1, antibody-β-glucuronidase fusion protein (Homo sapiens, UniProt P08236).
T1 construct: antibody part only targets
T1 sequence (P08236 23-651): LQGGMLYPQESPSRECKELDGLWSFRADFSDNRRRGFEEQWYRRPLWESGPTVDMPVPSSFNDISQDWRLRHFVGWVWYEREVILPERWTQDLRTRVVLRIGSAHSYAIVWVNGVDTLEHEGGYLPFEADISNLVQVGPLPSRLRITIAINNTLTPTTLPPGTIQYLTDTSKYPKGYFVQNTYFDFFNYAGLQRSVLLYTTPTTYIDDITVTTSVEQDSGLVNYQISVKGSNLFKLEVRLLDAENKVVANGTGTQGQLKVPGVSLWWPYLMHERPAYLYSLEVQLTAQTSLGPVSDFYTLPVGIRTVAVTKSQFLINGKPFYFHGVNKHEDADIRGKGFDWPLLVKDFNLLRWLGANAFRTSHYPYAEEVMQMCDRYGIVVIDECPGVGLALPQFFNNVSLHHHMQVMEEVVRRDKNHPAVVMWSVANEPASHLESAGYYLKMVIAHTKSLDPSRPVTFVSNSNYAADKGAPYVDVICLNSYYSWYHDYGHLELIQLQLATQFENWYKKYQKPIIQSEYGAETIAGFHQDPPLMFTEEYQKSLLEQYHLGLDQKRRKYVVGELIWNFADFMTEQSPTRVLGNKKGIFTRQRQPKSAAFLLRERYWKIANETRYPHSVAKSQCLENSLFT
The experiment in a line: Km and Vmax determination, enzymatic cleavage by fusion protein monitored by HPLC. The format is biochemical. The settings on record: 100 mM phosphate buffer + 1 mg/ml BSA, pH 7.2, 37° C., substrate 10-10000 μM. As for the experimental part: (§1) Comparison of Km- and V max-values of natural and improved substrate for antibody β-glucuronidase fusion protein
(§2) For Km- and Vmax-determination 3'-N-[4-(beta-D-Glucuronyloxy)-3-nitro-benzyloxycarbonyl]-doxorubicin and prodrug A should be diluted in the range of 10-10000 μM in 100 mM phosphate buffer+1 mg/ml BSA, pH 7.2. Enzymatic cleavage should be done with constant amounts of fusion protein at 37° C. Cleavage can be monitored by HPLC analysis. Km- and Vmax-values can be calculated with the software program GraFit 2.0 (Erithacus Software Ltd.).
(§3) The HPLC apparatus consisted of an autosampler (Abimed, model 231), an automatic sample extraction system (AASP, Varian) equipped with minicartridges containing C 18 reversed phase silica gel (Analytichem), a gradient pump (Gynkotek, model 480), a fluorescence detector (Shimazdu RF 535, Excitation: 495 nm, Emission: 560 nm). Before sample injection the minicartridges were preconditioned with 2.5 ml methanol and 1.5 ml phosphate buffer, pH 6. Analytes retained on the reversed phase silica gel were then eluted by valve switching and connection of the minicartridges to the mobile phase. Chromatography was performed on reversed phase material (Nucleosil C 18, 5 μm particle size, 120 mm length, 4,5 mm I.D.) and gradient elution. Elution was done by a gradient composed of 2 components (A: 20 mM phosphate, pH 3, B: acetonitrile). […]

Substrate in series [2]: [H][C@]1(O[C@H]2C[C@H](NC(=O)OCc3ccc(O[C@@H]4O[C@H](C(=O)O)[C@@H](O)[C@H](O)[C@H]4O)c([N+](=O)[O-])c3)[C@H](O)[C@H](C)O2)C[C@](O)(C(=O)CO)Cc2c(O)c3c(c(O)c21)C(=O)c1c(OC)cccc1C3=O
The series is described as above. The format is biochemical, human. The settings on record: other: 100 mM phosphate buffer + 1 mg/ml BSA, pH 7.2, 37° C., substrate 10-10000 μM. The protocol:
as §1, §2, §3

Consider `COc1cccc2c1C(=O)c1c(O)c3c(c(O)c1C2=O)C[C@@](O)(C(=O)CO)C[C@@H]3O[C@H]1C[C@H](NC(=O)OCc2ccc(O[C@@H]3O[C@H]([C@H](O)C(=O)O)[C@H](O)[C@H]3O)c([N+](=O)[O-])c2)[C@H](O)[C@H](C)O1` [Prodrug A], for which, in series [1], the Km is < 500 µM and the Vmax is on record as ~ 0.635 nmol/μg/min.

B1: antibody-β-glucuronidase fusion protein (Homo sapiens) (protein)
chain: LQGGMLYPQESPSRECKELDGLWSFRADFSDNRRRGFEEQWYRRPLWESGPTVDMPVPSSFNDISQDWRLRHFVGWVWYEREVILPERWTQDLRTRVVLRIGSAHSYAIVWVNGVDTLEHEGGYLPFEADISNLVQVGPLPSRLRITIAINNTLTPTTLPPGTIQYLTDTSKYPKGYFVQNTYFDFFNYAGLQRSVLLYTTPTTYIDDITVTTSVEQDSGLVNYQISVKGSNLFKLEVRLLDAENKVVANGTGTQGQLKVPGVSLWWPYLMHERPAYLYSLEVQLTAQTSLGPVSDFYTLPVGIRTVAVTKSQFLINGKPFYFHGVNKHEDADIRGKGFDWPLLVKDFNLLRWLGANAFRTSHYPYAEEVMQMCDRYGIVVIDECPGVGLALPQFFNNVSLHHHMQVMEEVVRRDKNHPAVVMWSVANEPASHLESAGYYLKMVIAHTKSLDPSRPVTFVSNSNYAADKGAPYVDVICLNSYYSWYHDYGHLELIQLQLATQFENWYKKYQKPIIQSEYGAETIAGFHQDPPLMFTEEYQKSLLEQYHLGLDQKRRKYVVGELIWNFADFMTEQSPTRVLGNKKGIFTRQRQPKSAAFLLRERYWKIANETRYPHSVAKSQCLENSLFT
notes: antibody part only targets
Turning to B1, in series [2], the Km was found to be 1300 µM and the Vmax is 0.635 nmol/µg/min.
